Results from patent US6177438A, “Morphinan derivatives and pharmaceutical use thereof” (priority 1993, dated 2001).
Structures can show the parent of a compound that is named as a salt.

Tests used:
[1] = system: cultured nerve cells (cerebral cortex); assay: cells; settings: Rattus norvegicus, Cerebral cortex neuron, 24 h, read-out: ED50 (protection against glutamic acid toxicity)
[2] = system: acetic acid-induced writhing in ddy mice; assay: animal or person; format: in vivo, 5 week old ddy mice; settings: Mus musculus, sc, s.c. 15 minutes before acetic acid, read-out: ED50
Method: 5 week old ddy mice were used in this test. After intraperitoneal administration of 0.1 ml of 0.6% aqueous acetic acid per 10 g of body weight, the number of writhing reactions that occurred in 10 minutes starting 10 minutes after administration was evaluated for the indicator. The test drug was administered subcutaneously into the backs of the animals 15 minutes before administration of acetic acid.

[3] = system: nerve cells in the region of the hippocampus CA1; assay: Delayed neuronal death protective action (gerbil transient ischemia model, hippocampus CA1 nerve cell count); format: in vivo, gerbils; settings: s.c.; for No. of Residual Nerve Cells: 30 minutes before ischemia, 1 week after ligation; for Suppression of defluxion of brain nerve cells caused by ischemia / cerebro-neuroprotective activity (in words): gerbils
Method: Those compounds that provide protection from and suppress delayed neuronal death described in Example 238 are considered to be promising as preventive and therapeutic agents for ischemic brain disorders, brain nerve cell disorders and dementia, which are problems that the present invention is attempting to solve. The pharmacological activity of the compounds of the present invention was evaluated in the manner below using gerbils for the animal model.
A midline incision was made in gerbils having body weights of 50-70 g under ether anesthesia. Blood flow through the carotid arteries on both sides was interrupted to create an ischemic state by ligating the vessels for 5 minutes. The test compound was administered subcutaneously either 30 minutes or 1 hour prior to ligation ischemia, and the rectal temperature of the animals was controlled to 37±2° C. using a heating pad or heater starting 5 minutes before to 30 minutes after ligation ischemia. 1 week after ligation, 4% neutral buffered formalin was perfused from the heart throughout the body followed by extraction of the brain. After post-fixing the extracted brain in the same solution, the tissue was prepared into sections after embedding in paraffin. The sections were stained with hematoxylin and eosin stain, and the number of nerve cells in the region of the hippocampus CA1 over a width of 1 mm to the left and right was counted. The total number of nerve cells on the right and left sides was then used for evaluation.

[4] = system: cultured nerve cells (cerebral cortex); settings: 10 mM glutamic acid, 24 hours
[5] = Diuretic action (urine output for 5 hours after physiological saline loading in rats); format: in vivo, male Wistar rats; settings: for ED (200% urine output) / ED (500% urine output): Rattus norvegicus, sc, 5 hours after saline 20 ml/kg p.o.; for ED (200% urine output): dose giving urine output of 200 (non-dosed group = 100); for ED (500% urine output): dose giving urine output of 500 (non-dosed group = 100)
How it was run: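 Doses reported as ED200/ED500, i.e. those raising 5 h urine output to 200 or 500 versus undosed rats set at 100. Subcutaneous dosing preceded an oral 20 ml/kg saline load by 30 min; male Wistar rats, 7-8 weeks, deprived of water 1 h beforehand.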

[6] = system: extracted mouse vas deferens preparation; assay: Opioid activity test using an extracted mouse vas deferens preparation (suppression of electrically induced contractions); design: species or system male ddy mouse; settings: electrical stimulus 0.1 Hz, 37° C.
How it was run: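 Male ddY mouse vas deferens in Krebs-Henseleit at 37° C, 5% CO2/95% O2, field-stimulated at 0.1 Hz, 5.0 ms; isometric contractions recorded. After adding naloxone, NTI or norBNI, test compound was added cumulatively after ~20 min; Ke derived from the difference in agonist efficacies.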

[7] = system: guinea pig respiratory tract; assay: Antitussive action using the guinea pig respiratory tract stimulation method; format: in vivo, male Hartley guinea pigs; settings: for ED50: Cavia porcellus, sc; for No. of Animals in which Coughing was Suppressed/No. of Animals Tested: s.c.
Method: Evaluation of Antitussive Action Using the Guinea Pig Respiratory Tract Stimulation Method
Male Hartley guinea pigs having body weights of 330-380 g were used in this test in groups of 5 animals each. The animals were immobilized in the supine position under mild anesthesia by intraperitoneal administration of 15 mg/kg of sodium pentobarbital. An incision was made in the necks of the animals to expose the respiratory tract. A small hole was opened in the exposed respiratory tract, and stimulating hairs were inserted to a depth of roughly 3 cm and at an angle of 30 degrees to the respiratory tract through the opened hole to provide a stimulus to the inner wall of the respiratory tract. The animals were then examined for the presence of coughing. […] The test drug was administered subcutaneously, and stimuli were provided two times each 15, 30, 60 and 120 minutes after administration.

[8] = target: T1, κ receptor (Mus musculus, UniProt P33534); assay: Opioid activity test using an extracted mouse vas deferens preparation, Ke with norBNI; design: species or system male ddy mouse; settings: for Ke, norBNI: κ, norBNI added; for receptor selectivity of agonist (κ): in words
T1 construct: from tissue; host or cells: mouse (male ddy) vas deferens

[9] = target: T2, μ receptor (Mus musculus, UniProt P42866); assay: Opioid activity test using an extracted mouse vas deferens preparation, Ke with naloxone; design: species or system male ddy mouse; settings: naloxone added
T2 construct: naloxone as mu antagonist (printed 'agonist')

[10] = target: T3, δ receptor (Mus musculus, UniProt P32300); design: species or system male ddy mouse; settings: mouse vas deferens; for Ke, NTI: δ, NTI added
T3 construct: The vas deferens extracted from the animal was suspended in a Magnus tube; from tissue; host or cells: mouse (male ddy) vas deferens
T3 sequence (P32300 whole entry): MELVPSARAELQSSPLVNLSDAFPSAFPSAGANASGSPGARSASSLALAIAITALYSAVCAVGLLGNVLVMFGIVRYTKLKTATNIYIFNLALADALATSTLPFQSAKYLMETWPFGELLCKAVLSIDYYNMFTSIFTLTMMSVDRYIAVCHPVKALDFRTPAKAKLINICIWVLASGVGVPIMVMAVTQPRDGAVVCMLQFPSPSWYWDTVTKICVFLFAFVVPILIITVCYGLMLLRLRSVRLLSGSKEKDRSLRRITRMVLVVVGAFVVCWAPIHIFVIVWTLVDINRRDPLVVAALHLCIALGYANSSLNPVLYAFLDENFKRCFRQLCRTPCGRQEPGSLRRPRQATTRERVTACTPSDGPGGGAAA

T1 sequence (P33534 whole entry): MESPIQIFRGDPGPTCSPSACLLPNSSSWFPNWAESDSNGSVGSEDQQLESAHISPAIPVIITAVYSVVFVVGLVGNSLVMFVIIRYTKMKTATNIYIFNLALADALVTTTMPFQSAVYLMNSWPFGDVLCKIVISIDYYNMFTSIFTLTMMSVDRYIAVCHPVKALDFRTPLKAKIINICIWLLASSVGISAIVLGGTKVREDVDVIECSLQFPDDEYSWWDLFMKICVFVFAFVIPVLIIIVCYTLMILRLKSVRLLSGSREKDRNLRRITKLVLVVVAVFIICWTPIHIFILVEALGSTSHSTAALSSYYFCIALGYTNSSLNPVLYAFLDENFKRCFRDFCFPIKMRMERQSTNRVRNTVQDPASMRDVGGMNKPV
T2 sequence (P42866 whole entry): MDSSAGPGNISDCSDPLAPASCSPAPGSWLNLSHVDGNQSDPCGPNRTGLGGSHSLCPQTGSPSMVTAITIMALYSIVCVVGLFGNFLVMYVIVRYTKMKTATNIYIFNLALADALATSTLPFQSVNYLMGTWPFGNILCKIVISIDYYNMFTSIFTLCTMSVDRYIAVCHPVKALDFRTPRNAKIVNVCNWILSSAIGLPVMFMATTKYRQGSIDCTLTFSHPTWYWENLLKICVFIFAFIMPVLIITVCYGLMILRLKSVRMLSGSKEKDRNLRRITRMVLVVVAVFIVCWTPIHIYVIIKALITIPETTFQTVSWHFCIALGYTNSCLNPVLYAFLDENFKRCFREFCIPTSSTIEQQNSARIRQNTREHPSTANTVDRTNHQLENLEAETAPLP

Structure (SMILES) | EC50 [1] | ED50 [2] | No. of Residual Nerve Cells ([3]; 0.03 mg/kg) | No. of Residual Nerve Cells ([3]; 0.3 mg/kg) | No. of Residual Nerve Cells ([3]; 3 mg/kg) | Suppression of defluxion of brain nerve cells caused by ischemia / cerebro-neuroprotective activity (in words) [3] | Protective action against cytotoxicity caused by glutamic acid (in words) [4] | ED (200% urine output) [5] | ED (500% urine output) [5] | IC50 [6] | ED50 [7] | Ke, norBNI [8] | Ke, Naloxone [9] | receptor selectivity of agonist (κ) [8] | Ke, NTI [10] | No. of Animals in which Coughing was Suppressed/No. of Animals Tested ([7]; 1 μg/kg) | No. of Animals in which Coughing was Suppressed/No. of Animals Tested ([7]; 3 μg/kg) | No. of Animals in which Coughing was Suppressed/No. of Animals Tested ([7]; 30 μg/kg) | Diuretic action (in words) ([5]; s.c., from ED200 values) | receptor selectivity of agonist (δ) ([10]; in words)
CN(C(=O)CCCCCc1ccccc1)[C@H]1CC[C@@]2(O)[C@H]3Cc4ccc(O)c5c4[C@@]2(CCN3CC2CC2)[C@H]1O5 [Compound 36, 17-cyclopropylmethyl-3,14β-dihydroxy-4,5α-epoxy-6α-(N-methyl-6-phenylhexanamido)morphinan.cndot.hydrochloride] | 230 nM | 230 µg/kg | 38.8 ± 19.6 | 85.5 ± 34.9 | 68.0 ± 45.3 | significantly suppress defluxion of brain nerve cells caused by ischemia | clearly demonstrated action that protects nerve cells from cytotoxicity caused by glutamic acid | – | – | – | – | – | – | – | – | – | – | – | – | –
CN(C(=O)/C=C/c1ccoc1)[C@@H]1CC[C@@]2(O)[C@H]3Cc4ccc(O)c5c4[C@@]2(CCN3CC2CC2)[C@H]1O5 [Compound 61, 17-cyclopropylmethyl-3,14β-dihydroxy-4,5α-epoxy-6β-[N-methyl-trans-3-(3-furyl)acrylamido]morphinan.cndot.tartrate] | 16300 nM | 4.4 µg/kg | – | – | – | – | clearly demonstrated action that protects nerve cells from cytotoxicity caused by glutamic acid | 3.2 µg/kg | 157 µg/kg | 0.42 nM | 3.7 µg/kg | 0.164 nM | – | – | – | – | – | – | – | –
CN(C(=O)C#Cc1ccccc1)[C@@H]1CC[C@@]2(O)[C@H]3Cc4ccc(O)c5c4[C@@]2(CCN3CC2CC2)[C@H]1O5 [Compound 101, 17-cyclopropylmethyl-3,14β-dihydroxy-4,5α-epoxy-6β-(N-methyl-3-phenylpropiolamido)morphinan.cndot.hydrochloride] | 12200 nM | 6.6 µg/kg | – | – | – | – | clearly demonstrated action that protects nerve cells from cytotoxicity caused by glutamic acid | 8.9 µg/kg | 226 µg/kg | 0.269 nM | – | 0.0425 nM | 25.4 nM | selective agonists for κ receptors | 31.6 nM | – | – | – | – | –
Cc1cccc(/C=C/C(=O)N(C)[C@@H]2CC[C@@]3(O)[C@H]4Cc5ccc(O)c6c5[C@@]3(CCN4CC3CC3)[C@H]2O6)c1 [Compound 69, 17-cyclopropylmethyl-3,14β-dihydroxy-4,5α-epoxy-6β-(N-methyl-3-methylcinnamamido)morphinan.cndot.hydrochloride] | – | 4.9 µg/kg | 12.4 ± 3.0 | 43.3 ± 19.1 | 178.3 ± 30.4 | significantly suppress defluxion of brain nerve cells caused by ischemia | – | – | – | 0.32 nM | 12.5 µg/kg | 1.95 nM | 1780 nM | selective agonists for κ receptors | 64.5 nM | 1/5 | 1/5 | 4/5 | – | –
CN(C(=O)/C=C/c1cccc([N+](=O)[O-])c1)[C@@H]1CC[C@@]2(O)[C@H]3Cc4ccc(O)c5c4[C@@]2(CCN3CC2CC2)[C@H]1O5 [Compound 104, 17-cyclopropylmethyl-3,14β-dihydroxy-4,5α-epoxy-6β-(N-methyl-3-nitrocinnamamido)morphinan.cndot.tartrate] | 5450 nM | 17 µg/kg | 12.0 ± 3.0 | 14.8 ± 1.2 | 106.2 ± 65.6 | significantly suppress defluxion of brain nerve cells caused by ischemia | clearly demonstrated action that protects nerve cells from cytotoxicity caused by glutamic acid | – | – | 0.227 nM | – | 1.40 nM | 185 nM | selective agonists for κ receptors | 89 nM | – | – | – | – | –
CN(C(=O)/C=C/C1CCCCC1)[C@@H]1CC[C@@]2(O)[C@H]3Cc4ccc(O)c5c4[C@@]2(CCN3CC2CC2)[C@H]1O5 [Compound 68, 17-cyclopropylmethyl-3,14β-dihydroxy-4,5α-epoxy-6β-(N-methyl-3-cyclohexylacrylamido)morphinan.cndot.tartrate] | 1410 nM | 4.2 µg/kg | – | – | – | – | clearly demonstrated action that protects nerve cells from cytotoxicity caused by glutamic acid | 1.6 µg/kg | 23.2 µg/kg | 0.457 nM | – | 1.08 nM | 5710 nM | selective agonists for κ receptors | 143 nM | – | – | – | – | –
CN(C(=O)/C=C/c1ccccc1)[C@H]1CC[C@@]2(O)[C@H]3Cc4ccc(O)c5c4[C@@]2(CCN3CC2CC2)[C@H]1O5 [Compound 24, 17-cyclopropylmethyl-3,14β-dihydroxy-4,5α-epoxy-6α-(N-methylcinnamamido)morphinan.cndot.hydrochloride] | 1910 nM | 5.75 µg/kg | – | – | – | – | clearly demonstrated action that protects nerve cells from cytotoxicity caused by glutamic acid | 0.69 µg/kg | 6.3 µg/kg | 0.121 nM | – | 4.90 nM | 16.5 nM | – | 0.426 nM | – | – | – | extremely strong diuretic action | selective agonists for δ receptors
CC(C)CN(C(=O)Cc1ccc(Cl)c(Cl)c1)[C@H]1CC[C@@]2(O)[C@H]3Cc4ccc(O)c5c4[C@@]2(CCN3CC2CC2)[C@H]1O5 [Compound 51, 17-cyclopropylmethyl-4,5α-epoxy-3,14β-dihydroxy-6α-(N-isobutyl-3,4-dichlorophenylacetoamido)morphinan.cndot.hydrochloride] | 30 nM | 190 µg/kg | 17.8 ± 6.9 | 46.4 ± 15.1 | 203.8 ± 40.1 | significantly suppress defluxion of brain nerve cells caused by ischemia | clearly demonstrated action that protects nerve cells from cytotoxicity caused by glutamic acid | – | – | – | – | – | – | – | – | – | – | – | – | –
